Experimental data: ChEMBL document CHEMBL1201862, “PubChem BioAssay data set” (2004)
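96-well plates; 48 h exposure; 5 concentrations. Endpoints by linear interpolation between flanking doses. Not reached: highest tested concentration assigned. Here, GI50 denotes the concentration required for 50% inhibition of growth.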 The source made the active and inactive calls. Cut-off read from the data, not from the text of the source: active = GI50 up to about 1.1 µM and inactive = higher.

How the values were obtained:
Test in all cases: NCI-60 cell line screen, 48 h
BT-549 = test system: BT-549
RPMI-8226 = test system: RPMI-8226
HL-60 = test system: HL-60
SNB-19 = test system: SNB-19
UACC-62 = test system: UACC-62
NCI-H522 = test system: NCI-H522
SF-268 = test system: SF-268
KM12 = test system: KM12
K562 = test system: K562
CCRF-CEM = test system: CCRF-CEM
TK-10 = test system: TK-10
NCI-H460 = test system: NCI-H460
CAKI-1 = test system: CAKI-1
MOLT-4 = test system: MOLT-4
MDA-MB-231 = test system: MDA-MB-231
SF-539 = test system: SF-539
NCI-H23 = test system: NCI-H23
RXF 393 = test system: RXF 393
SW-620 = test system: SW-620
ACHN = test system: ACHN
COLO 205 = test system: COLO 205
SK-MEL-2 = test system: SK-MEL-2
UO-31 = test system: UO-31
HCT-15 = test system: HCT-15
OVCAR-3 = test system: OVCAR-3
IGROV-1 = test system: IGROV-1
SK-OV-3 = test system: SK-OV-3
EKVX = test system: EKVX
Malme-3M = test system: Malme-3M
A498 = test system: A498
UACC-257 = test system: UACC-257
Hs-578T = test system: Hs-578T
HT-29 = test system: HT-29
MDA-MB-435 = test system: MDA-MB-435
SN12C = test system: SN12C
SK-MEL-28 = test system: SK-MEL-28
SF-295 = test system: SF-295
HOP-62 = test system: HOP-62
HCT-116 = test system: HCT-116
OVCAR-4 = test system: OVCAR-4
NCI-H226 = test system: NCI-H226
SK-MEL-5 = test system: SK-MEL-5
HOP-92 = test system: HOP-92
OVCAR-5 = test system: OVCAR-5
SNB-75 = test system: SNB-75
M14 = test system: M14
786-0 = test system: 786-0
NCI/ADR-RES = test system: NCI/ADR-RES
OVCAR-8 = test system: OVCAR-8
LOX IMVI = test system: LOX IMVI
DU-145 = test system: DU-145
SR = test system: SR
A549 = test system: A549
U-251 = test system: U-251
MCF7 = test system: MCF7
PC-3 = test system: PC-3
T47D = test system: T47D
HCC 2998 = test system: HCC 2998

In the case of `COc1cc2nc(-c3cccs3)oc(=O)c2cc1OC`, the GI50 (BT-549) is reported as 42 µM (inactive), the GI50 (RPMI-8226) is reported as > 100 µM (inactive) and the GI50 (HL-60) is reported as > 100 µM (inactive). For the same molecule, the GI50 (SNB-19) was 47.3 µM (inactive), the GI50 (UACC-62) was > 100 µM (inactive) and the GI50 (NCI-H522) was > 100 µM (inactive). For the same molecule, the GI50 (SF-268) was 61.7 µM (inactive), the GI50 (KM12) was > 100 µM (inactive) and the GI50 (K562) was > 100 µM (inactive). The GI50 (CCRF-CEM) was > 100 µM (inactive), the GI50 (TK-10) was > 100 µM (inactive) and the GI50 (NCI-H460) was > 100 µM (inactive). For the same molecule, the GI50 (CAKI-1) was > 100 µM (inactive), the GI50 (MOLT-4) was > 100 µM (inactive) and the GI50 (MDA-MB-231) was 74.8 µM (inactive). The GI50 (SF-539) was 57.3 µM (inactive), the GI50 (NCI-H23) was 97.9 µM (inactive) and the GI50 (RXF 393) was > 100 µM (inactive). For the same molecule, the GI50 (SW-620) was > 100 µM (inactive), the GI50 (ACHN) was > 100 µM (inactive) and the GI50 (COLO 205) was > 100 µM (inactive). The GI50 (SK-MEL-2) was > 100 µM (inactive), the GI50 (UO-31) was > 100 µM (inactive) and the GI50 (HCT-15) was > 100 µM. The GI50 (OVCAR-3) was > 100 µM (inactive), the GI50 (IGROV-1) was > 100 µM (inactive) and the GI50 (SK-OV-3) was > 100 µM (inactive). The GI50 (EKVX) was > 100 µM (inactive), the GI50 (Malme-3M) was > 100 µM (inactive) and the GI50 (A498) was > 100 µM (inactive). The GI50 (UACC-257) was > 100 µM (inactive), the GI50 (Hs-578T) was 72.1 µM (inactive) and the GI50 (HT-29) was > 100 µM (inactive). The GI50 (MDA-MB-435) was > 100 µM (inactive), the GI50 (SN12C) was > 100 µM (inactive) and the GI50 (SK-MEL-28) was > 100 µM (inactive). For the same molecule, the GI50 (SF-295) was > 100 µM (inactive), the GI50 (HOP-62) was 17.6 µM (inactive) and the GI50 (HCT-116) was 86.5 µM (inactive). For the same molecule, the GI50 (OVCAR-4) was > 100 µM (inactive), the GI50 (NCI-H226) was 50.7 µM (inactive) and the GI50 (SK-MEL-5) was > 100 µM (inactive). For the same molecule, the GI50 (HOP-92) was > 100 µM (inactive), the GI50 (OVCAR-5) was > 100 µM (inactive) and the GI50 (SNB-75) was > 100 µM (inactive). For the same molecule, the GI50 (M14) was > 100 µM (inactive), the GI50 (786-0) was 94 µM (inactive) and the GI50 (NCI/ADR-RES) was 51.2 µM (inactive). For the same molecule, the GI50 (OVCAR-8) was 53.1 µM (inactive), the GI50 (LOX IMVI) was > 100 µM (inactive) and the GI50 (DU-145) was > 100 µM (inactive). The GI50 (SR) was > 100 µM (inactive), the GI50 (A549) was > 100 µM (inactive) and the GI50 (U-251) was 38.5 µM (inactive). For the same molecule, the GI50 (MCF7) was > 100 µM (inactive), the GI50 (PC-3) was > 100 µM (inactive) and the GI50 (T47D) was > 100 µM (inactive).
With `O=S(=O)(Oc1ccc2ccccc2c1-c1c(OS(=O)(=O)C(F)(F)F)ccc2ccccc12)C(F)(F)F` the GI50 (BT-549) was > 100 µM (inactive), the GI50 (RPMI-8226) was 27.5 µM (inactive) and the GI50 (HL-60) was 11.3 µM (inactive). For the same molecule, the GI50 (SNB-19) was > 100 µM (inactive), the GI50 (UACC-62) was > 100 µM (inactive) and the GI50 (NCI-H522) was 37.7 µM (inactive). For the same molecule, the GI50 (SF-268) was > 100 µM (inactive), the GI50 (KM12) was > 100 µM (inactive) and the GI50 (K562) was 16.9 µM (inactive). For the same molecule, the GI50 (CCRF-CEM) was 29.3 µM (inactive), the GI50 (NCI-H460) was 20 µM (inactive) and the GI50 (CAKI-1) was > 100 µM (inactive). For the same molecule, the GI50 (MOLT-4) was 12.8 µM (inactive), the GI50 (MDA-MB-231) was 42.7 µM (inactive) and the GI50 (SF-539) was > 100 µM (inactive). For the same molecule, the GI50 (HCC 2998) was 31 µM (inactive), the GI50 (NCI-H23) was 75.2 µM (inactive) and the GI50 (RXF 393) was 43.4 µM (inactive). For the same molecule, the GI50 (SW-620) was > 100 µM (inactive), the GI50 (ACHN) was 2.75 µM (inactive) and the GI50 (COLO 205) was > 100 µM (inactive). The GI50 (SK-MEL-2) was > 100 µM (inactive), the GI50 (UO-31) was 37.8 µM (inactive) and the GI50 (HCT-15) was 32.4 µM. The GI50 (OVCAR-3) was 41.8 µM (inactive), the GI50 (IGROV-1) was > 100 µM (inactive) and the GI50 (SK-OV-3) was > 100 µM (inactive). For the same molecule, the GI50 (EKVX) was 66.4 µM (inactive), the GI50 (Malme-3M) was > 100 µM (inactive) and the GI50 (A498) was 26.4 µM (inactive). The GI50 (UACC-257) was 1.32 µM (inactive), the GI50 (Hs-578T) was > 100 µM (inactive) and the GI50 (HT-29) was 41.9 µM (inactive). The GI50 (MDA-MB-435) was 45.5 µM (inactive), the GI50 (SK-MEL-28) was > 100 µM (inactive) and the GI50 (SF-295) was > 100 µM (inactive). For the same molecule, the GI50 (HOP-62) was > 100 µM (inactive), the GI50 (HCT-116) was 9.64 µM (inactive) and the GI50 (OVCAR-4) was 4.2 µM (inactive). The GI50 (NCI-H226) was 79.1 µM (inactive), the GI50 (SK-MEL-5) was 7.01 µM (inactive) and the GI50 (HOP-92) was 12.5 µM (inactive). The GI50 (OVCAR-5) was > 100 µM (inactive), the GI50 (SNB-75) was > 100 µM (inactive) and the GI50 (M14) was 91.8 µM (inactive). The GI50 (786-0) was > 100 µM (inactive), the GI50 (NCI/ADR-RES) was 84.5 µM (inactive) and the GI50 (OVCAR-8) was > 100 µM (inactive). The GI50 (SR) was 7.67 µM (inactive), the GI50 (A549) was 35 µM (inactive) and the GI50 (U-251) was 32.1 µM (inactive). The GI50 (MCF7) was > 100 µM (inactive) and the GI50 (PC-3) was 12.7 µM (inactive).
